In patent US8501770B2 (ArQule, Inc., priority 2009, dated 2013):

Each molecule was assayed against Full-length inactive AKT1 (Homo sapiens, UniProt P31749) (assay: Inactive Akt Alpha Screen Assay). Conditions: AlphaScreen assay (values not marked with *); read-out: Akt1 IC50, (AlphaScreen) (μM) (or if marked with “*” HTRF assay).
Sequence of Full-length inactive AKT1 (P31749 whole entry): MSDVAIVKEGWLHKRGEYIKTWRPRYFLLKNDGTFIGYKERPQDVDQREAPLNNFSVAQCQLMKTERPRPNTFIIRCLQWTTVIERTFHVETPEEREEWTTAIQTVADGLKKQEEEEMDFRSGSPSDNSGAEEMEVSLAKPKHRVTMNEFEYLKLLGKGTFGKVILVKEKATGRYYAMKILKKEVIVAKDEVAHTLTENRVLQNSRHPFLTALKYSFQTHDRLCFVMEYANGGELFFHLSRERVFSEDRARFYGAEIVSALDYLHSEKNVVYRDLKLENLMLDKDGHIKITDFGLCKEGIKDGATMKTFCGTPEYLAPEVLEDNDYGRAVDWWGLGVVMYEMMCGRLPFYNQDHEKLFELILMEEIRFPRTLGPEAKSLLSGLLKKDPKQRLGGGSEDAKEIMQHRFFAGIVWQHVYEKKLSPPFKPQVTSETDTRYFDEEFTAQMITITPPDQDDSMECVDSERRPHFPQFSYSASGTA
Format: biochemical
Summary of the method: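 AlphaScreen read-out (excitation 640 nm, emission 570 nm) after 90 min incubation at room temperature in the dark. Signal comes from crosstide phosphorylation by AKT1, which was activated by added PDK1, MAPKAPK2, ATP and lipid vesicles, captured via phospho-AKT substrate antibody and streptavidin beads.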
With CN(C)S(=O)(=O)Nc1cccc(-c2ccc3nc(-c4cccnc4N)n(-c4ccc(C5(N)CCC5)cc4)c3n2)c1 [Example 455, N′-(3-{3-[4-(1-aminocyclobutyl)phenyl]-2-(2-aminopyridin-3-yl)-3H-imidazo[4,5-b]pyridin-5-yl}phenyl)-N,N-dimethylsulfamide] the IC50 was 0.011 µM. With Nc1ncccc1-c1nc2ccc(-c3cccc4[nH]ncc34)nc2n1-c1ccc(C2(N)CCC2)cc1 [Example 442, 3-{3-[4-(1-aminocyclobutyl)phenyl]-5-(1H-indazol-4-yl)-3H-imidazo[4,5-b]pyridin-2-yl}pyridin-2-amine] the IC50 was 0.0049 µM. Work on Nc1ncccc1-c1nc2ccc(-c3cccc(N4CCC4)c3)nc2n1-c1ccc(C2(N)CCC2)cc1 [Example 457, 3-{3-[4-(1-aminocyclobutyl)phenyl]-5-(3-azetidin-1-ylphenyl)-3H-imidazo[4,5-b]pyridin-2-yl}pyridin-2-amine] yielded an IC50 of 0.0093 µM. With Nc1ncccc1-c1nc2ccc(-c3cccc(N4CCC5(CC4)OCCO5)c3)nc2n1-c1ccc(C2(N)CCC2)cc1 [Example 464, 3-{3-[4-(1-aminocyclobutyl)phenyl]-5-[3-(1,4-dioxa-8-azaspiro[4.5]dec-8-yl)phenyl]-3H-imidazo[4,5-b]pyridin-2-yl}pyridin-2-amine] the IC50 was 0.011 µM. With Nc1ncccc1-c1nc2ccc(-c3ccc4[nH]ccc4c3)nc2n1-c1ccc(C2(N)CCC2)cc1 [Example 452, 3-{3-[4-(1-aminocyclobutyl)phenyl]-5-(1H-indol-5-yl)-3H-imidazo[4,5-b]pyridin-2-yl}pyridin-2-amine] the IC50 was 0.0041 µM.

Same assay, conditions: values not marked with "*": AlphaScreen assay; read-out: Akt1 IC50, (AlphaScreen)
Molecule Nc1ncccc1-c1nc2cc(-c3ccc(Br)cc3)cnc2n1-c1ccc(CNC(=O)c2ccccc2)cc1 [Example 143, N-{4-[2-(2-aminopyridin-3-yl)-6-(4-bromophenyl)-3H-imidazo[4,5-b]pyridin-3-yl]benzyl}benzamide] has an IC50 of 0.17 µM. Nc1ncccc1-c1nc2cccnc2n1-c1ccc(CNC(=O)c2ccccc2-n2cccc2)cc1 [Example 78] showed an IC50 of 0.307 µM. Work on CCOC(=O)Cc1ccc(-n2c(-c3cccnc3N)nc3cccnc32)cc1 [Example 113] yielded an IC50 of 0.61 µM. Molecule CCOc1cccc(-c2cnc3c(c2)nc(-c2cccnc2N)n3-c2ccc(CNC(=O)c3ccccc3)cc2)c1 [Example 135, N-{4-[2-(2-aminopyridin-3-yl)-6-(3-ethoxyphenyl)-3H-imidazo[4,5-b]pyridin-3-yl]benzyl}benzamide] has an IC50 of 1.8 µM. CC(C)(C)OC(=O)NCc1ccc(-n2c(-c3cccnc3N)nc3cccnc32)cc1 [Example 9] showed an IC50 of 2.47 µM. For Nc1ncccc1-c1nc2cccnc2n1-c1ccc(CNC(=O)Nc2ccccc2Cl)cc1 [Example 90], the IC50 was 0.394 µM. In the case of Nc1ncccc1-c1nc2cc(Br)cnc2n1-c1ccc(CNS(=O)(=O)c2cccc(Cl)c2)cc1 [Example 156, N-{4-[2-(2-aminopyridin-3-yl)-6-bromo-3H-imidazo[4,5-b]pyridin-3-yl]benzyl}-3-chlorobenzenesulfonamide], the IC50 is reported as 1.2 µM.

Same assay, conditions: values not marked with "*"; read-out: Akt1 IC50, (AlphaScreen)
Molecule COc1ccc(-c2ccc3nc(-c4cccnc4N)n(-c4ccc(C5(N)CCC5)cc4)c3n2)cc1OC [Example 414, 3-{3-[4-(1-aminocyclobutyl)phenyl]-5-(3,4-dimethoxyphenyl)-3H-imidazo[4,5-b]pyridin-2-yl}pyridin-2-amine] has an IC50 of 0.0049 µM. Nc1ncccc1-c1nc2cc(C(F)(F)F)cnc2n1-c1ccc(CNC(=O)c2ccccc2)cc1 [Example 199, N-(4-(2-(2-aminopyridin-3-yl)-6-(trifluoromethyl)-3H-imidazo[4,5-b]pyridin-3-yl)benzyl)benzamide] was tested, and the IC50 was 0.2 µM. Nc1ncccc1-c1nc2cc(Br)cnc2n1-c1ccc(CNS(=O)(=O)c2ccc(F)cc2)cc1 [Example 158, N-{4-[2-(2-aminopyridin-3-yl)-6-bromo-3H-imidazo[4,5-b]pyridin-3-yl]benzyl}-4-fluorobenzenesulfonamide] showed an IC50 of 0.49 µM. Molecule Cc1cnc2c(c1)nc(-c1cccnc1N)n2-c1ccc(CNC(=O)OC(C)(C)C)cc1 [Example 227, tert-butyl 4-(2-(2-aminopyridin-3-yl)-6-methyl-3H-imidazo[4,5-b]pyridin-3-yl)benzylcarbamate] has an IC50 of 0.47 µM. In the case of Cc1ccc2nc(-c3cccnc3N)n(-c3ccc(CC(=O)c4ccccc4)cc3)c2n1 [Example 349, 2-(4-(2-(2-aminopyridin-3-yl)-5-methyl-3H-imidazo[4,5-b]pyridin-3-yl)phenyl)-1-phenylethanone], the IC50 is reported as 0.18 µM. Molecule Cc1cnc2c(c1)nc(-c1cccnc1N)n2-c1ccc(CNC(=O)c2cccc(F)c2)cc1 [Example 232, N-(4-(2-(2-aminopyridin-3-yl)-6-methyl-3H-imidazo[4,5-b]pyridin-3-yl)benzyl)-3-fluorobenzamide] has an IC50 of 0.041 µM. Work on CC(=O)Nc1ccc(-c2cnc3c(c2)nc(-c2cccnc2N)n3-c2ccc(CNC(=O)c3ccccc3)cc2)cc1 [Example 197, N-(4-(6-(4-acetamidophenyl)-2-(2-aminopyridin-3-yl)-3H-imidazo[4,5-b]pyridin-3-yl)benzyl)benzamide] yielded an IC50 of 0.047 µM. With CC(=O)Nc1cccc(-c2ccc3nc(-c4cccnc4N)n(-c4ccc(CNC(=O)c5ccc(C)c(F)c5)cc4)c3n2)c1 [Example 293, N-(4-(5-(3-acetamidophenyl)-2-(2-aminopyridin-3-yl)-3H-imidazo[4,5-b]pyridin-3-yl)benzyl)-3-fluoro-4-methylbenzamide] the IC50 was 0.0095 µM. Nc1ncccc1-c1nc2cc(-c3cccnc3)cnc2n1-c1ccc(CNS(=O)(=O)C2CC2)cc1 [Example 205, N-(4-(2-(2-aminopyridin-3-yl)-6-(pyridin-3-yl)-3H-imidazo[4,5-b]pyridin-3-yl)benzyl)cyclopropanesulfonamide] showed an IC50 of 0.059 µM. In the case of CC(C)C(=O)Nc1cccc(-c2ccc3nc(-c4cccnc4N)n(-c4ccc(C5(N)CCC5)cc4)c3n2)c1 [Example 405, N-(3-{3-[4-(1-aminocyclobutyl)phenyl]-2-(2-aminopyridin-3-yl)-3H-imidazo[4,5-b]pyridin-5-yl}phenyl)-2-methylpropanamide], the IC50 is reported as 0.013 µM. Molecule Cc1cnc2c(c1)nc(-c1cccnc1N)n2-c1ccc(CNC(=O)c2cccnc2)cc1 [Example 268, N-(4-(2-(2-aminopyridin-3-yl)-6-methyl-3H-imidazo[4,5-b]pyridin-3-yl)benzyl)nicotinamide] has an IC50 of 0.59 µM. Work on COc1ccc(NC(=O)NCc2ccc(-n3c(-c4cccnc4N)nc4cc(F)cnc43)cc2)cc1 [Example 176, 1-{4-[2-(2-aminopyridin-3-yl)-6-fluoro-3H-imidazo[4,5-b]pyridin-3-yl]benzyl}-3-(4-methoxyphenyl)urea] yielded an IC50 of 1.2 µM. CC(=O)Nc1ccc(-c2ccc3nc(-c4cccnc4N)n(-c4ccc(CNC(=O)OC(C)(C)C)cc4)c3n2)cc1 [Example 259, tert-butyl 4-(5-(4-acetamidophenyl)-2-(2-aminopyridin-3-yl)-3H-imidazo[4,5-b]pyridin-3-yl)benzylcarbamate] showed an IC50 of 0.53 µM. With Nc1ncccc1-c1nc2ccc(-c3ccsc3)nc2n1-c1ccc(C2(N)CCC2)cc1 [Example 427, 3-{3-[4-(1-aminocyclobutyl)phenyl]-5-(3-thienyl)-3H-imidazo[4,5-b]pyridin-2-yl}pyridin-2-amine] the IC50 was 0.01 µM. For CC(=O)Nc1cccc(-c2ccc3nc(-c4cccnc4N)n(-c4ccc(CNS(=O)(=O)c5cn(C)cn5)cc4)c3n2)c1 [Example 325, N-(3-(2-(2-aminopyridin-3-yl)-3-(4-((1-methyl-1H-imidazole-4-sulfonamido)methyl)phenyl)-3H-imidazo[4,5-b]pyridin-5-yl)phenyl)acetamide], the IC50 was 0.033 µM. With Nc1ncccc1-c1nc2ccc(-c3cccc(N4CCCCC4)c3)nc2n1-c1ccc(C2(N)CCC2)cc1 [Example 431, 3-{3-[4-(1-aminocyclobutyl)phenyl]-5-(3-piperidin-1-ylphenyl)-3H-imidazo[4,5-b]pyridin-2-yl}pyridin-2-amine] the IC50 was 0.018 µM. Nc1ncccc1-c1nc2ccc(-c3cccc(C(=O)N4CCOCC4)c3)nc2n1-c1ccc(C2(N)CCC2)cc1 [Example 388, (3-(3-(4-(1-aminocyclobutyl)phenyl)-2-(2-aminopyridin-3-yl)-3H-imidazo[4,5-b]pyridin-5-yl)phenyl)(morpholino)methanone] gave an IC50 of 0.003 µM. Cc1ccc2nc(-c3cccnc3N)n(-c3ccc(CNC(=O)c4ccccc4)cc3)c2n1 [Example 246, N-(4-(2-(2-aminopyridin-3-yl)-5-methyl-3H-imidazo[4,5-b]pyridin-3-yl)benzyl)benzamide] gave an IC50 of 0.02 µM. Molecule CN(C)c1cccc(-c2ccc3nc(-c4cccnc4N)n(-c4ccc(C5(N)CCC5)cc4)c3n2)c1 [Example 409, 3-{3-[4-(1-aminocyclobutyl)phenyl]-5-[3-(dimethylamino)phenyl]-3H-imidazo[4,5-b]pyridin-2-yl}pyridin-2-amine] has an IC50 of 0.0053 µM. With CNC(=O)Cc1ccc(-n2c(-c3cccnc3N)nc3ccc(-c4cccc(NC(C)=O)c4)nc32)cc1 [Example 341, 2-(4-(5-(3-acetamidophenyl)-2-(2-aminopyridin-3-yl)-3H-imidazo[4,5-b]pyridin-3-yl)phenyl)-N-methylacetamide] the IC50 was 0.032 µM. In the case of Cc1cnc2c(c1)nc(-c1cccnc1N)n2-c1ccc(CNC(=O)c2ccccc2Cc2ccccc2)cc1 [Example 225, N-(4-(2-(2-aminopyridin-3-yl)-6-methyl-3H-imidazo[4,5-b]pyridin-3-yl)benzyl)-2-benzylbenzamide], the IC50 is reported as 0.011 µM. Nc1ncccc1-c1nc2ccc(-c3cc[nH]n3)nc2n1-c1ccc(C2(N)CCC2)cc1 [Example 418, 3-{3-[4-(1-aminocyclobutyl)phenyl]-5-(1H-pyrazol-3-yl)-3H-imidazo[4,5-b]pyridin-2-yl}pyridin-2-amine] was tested, and the IC50 was 0.0082 µM. For Nc1ncccc1-c1nc2ccc(-c3cc[nH]c3)nc2n1-c1ccc(C2(N)CCC2)cc1 [Example 408, 3-{3-[4-(1-aminocyclobutyl)phenyl]-5-(1H-pyrrol-3-yl)-3H-imidazo[4,5-b]pyridin-2-yl}pyridin-2-amine], the IC50 was 0.0024 µM.
